In patent publication USRE50082E1, “(5,6-dihydro)pyrimido[4,5-e]indolizines” (NETHERLANDS TRANSLATIONAL RESEARCH CENTER B.V., priority 2014, dated 2024):

Test system: MOLT-4 cancer cell line
Test: Cell proliferation assay, MOLT-4 cancer cell line (ATPlite);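 note: luminescence read-out, percent growth versus compound-free DMSO wells as maximum growth, start-of-incubation signal separating growth from cell death, IC50 from logistic curve fit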
Assay type: cell-based
Details: Homo sapiens, MOLT-4; 72 hours incubation, ATPlite 1Step; read-out: IC50 MOLT-4 cell proliferation
Procedure: 5 μL of compound solution was added and the plates were incubated for an additional 72 hours after which 25 μL of ATPlite 1Step™ (PerkinElmer, Groningen, The Netherlands) solution was added to each well. Luminescence was recorded on an Envision multimode reader. The cell signal at the start of incubation was recorded separately in order to distinguish between cell population growth and cell death. In addition, maximum growth was determined by incubation of a duplicate without compound in the presence of 0.4% DMSO. Percentage growth was used as the main y-axis signal. IC50s were fitted by non-linear regression using IDBS XLfit™5 using a 4-parameter logistic curve, yielding a maximum signal, minimum signal, hill-parameter and IC50.

SMILES	IC50 [nM]
CCc1nn(CCOC)c(CC)c1NC(=O)c1ccn2c1CCc1cnc(Nc3ccc(C(=O)N(C)CCCN(C)C)cc3OC)nc1-2 [Example 88, N-[3,5-diethyl-1-(2-methoxyethyl)pyrazol-4-yl]-2-[4-[3-(dimethylamino)propyl-methyl-carbamoyl]-2-methoxy-anilino]-5,6-dihydropyrimido[4,5-e]indolizine-7-carboxamide]	50 to 150
COCCn1nc(C)c(NC(=O)c2ccn3c2CCc2cnc(Nc4ccc(OC5CNC5)cc4OC)nc2-3)c1C [Example 91, 2-[4-(Azetidin-3-yloxy)-2-methoxy-anilino]-N-[1-(2-methoxyethyl)-3,5-dimethyl-pyrazol-4-yl]-5,6-dihydropyrimido[4,5-e]indolizine-7-carboxamide]	50 to 150
CCc1n[nH]c(CC)c1NC(=O)c1ccn2c1CCc1cnc(Nc3ccc(OC4CNC4)cc3OC)nc1-2 [Example 92, 2-[4-(Azetidin-3-yloxy)-2-methoxy-anilino]-N-(3,5-diethyl-pyrazol-4-yl)-5,6-dihydropyrimido[4,5-e]indolizine-7-carboxamide]	50 to 150
COc1cc(N2CCNCC2)ccc1Nc1ncc2c(n1)-n1ccc(C(=O)Nc3c(C)nn(CC(C)(C)O)c3C)c1CC2 [Example 98, N-[1-(2-hydroxy-2-methyl-propyl)-3,5-dimethyl-pyrazol-4-yl]-2-(2-methoxy-4-piperazin-1-yl-anilino)-5,6-dihydropyrimido[4,5-e]indolizine-7-carboxamide]	50 to 150
[2H]C([2H])([2H])Oc1cc(N2CCN(C)CC2)ccc1Nc1ncc2c(n1)-n1ccc(C(=O)Nc3c(CC)cccc3CC)c1CC2 [Example 99, N-(2,6-diethylphenyl)-2-[4-(4-methylpiperazin-1-yl)-2-(trideuteriomethoxy)anilino]-5,6-dihydropyrimido[4,5-e]indolizine-7-carboxamide]	< 50
CCc1cccc(CC)c1NC(=O)c1ccn2c1CCc1cnc(Nc3cc(Cl)c(N4CCN(C)CC4)cc3OC)nc1-2 [Example 102, 2-[5-Chloro-2-methoxy-4-(4-methylpiperazin-1-yl)anilino]-N-(2,6-diethylphenyl)-5,6-dihydropyrimido[4,5-e]indolizine-7-carboxamide]	50 to 150
COc1cc(C(=O)NC2CCOCC2)ccc1Nc1ncc2c(n1)-n1ccc(C(=O)Nc3c(C)cccc3C)c1CC2 [Example 103, N-(2,6-dimethylphenyl)-2-[2-methoxy-4-(tetrahydropyran-4-ylcarbamoyl)anilino]-5,6-dihydropyrimido[4,5-e]indolizine-7-carboxamide]	< 50
COc1cc(C(=O)NC2CNC2)ccc1Nc1ncc2c(n1)-n1ccc(C(=O)Nc3c(C)cccc3C)c1CC2 [Example 104, 2-[4-(Azetidin-3-ylcarbamoyl)-2-methoxy-anilino]-N-(2,6-dimethylphenyl)-5,6-dihydropyrimido[4,5-e]indolizine-7-carboxamide]	50 to 150
COCC(=O)N1CCN(c2ccc(Nc3ncc4c(n3)-n3ccc(C(=O)Nc5c(C)cccc5C)c3CC4)c(OC)c2)CC1 [Example 105, N-(2,6-dimethylphenyl)-2-[2-methoxy-4-[4-(2-methoxyacetyl)piperazin-1-yl]anilino]-5,6-dihydropyrimido[4,5-e]indolizine-7-carboxamide]	< 50
CCc1nn(CCOC)c(CC)c1NC(=O)c1ccn2c1CCc1cnc(Nc3ccc(N4CCN(C)CC4)cc3OC)nc1-2 [Example 109, N-[3,5-diethyl-1-(2-methoxyethyl)pyrazol-4-yl]-2-[2-methoxy-4-(4-methylpiperazin-1-yl)anilino]-5,6-dihydropyrimido[4,5-e]indolizine-7-carboxamide]	< 50
COc1cc(N2CCN(C(=O)C3CC3)CC2)ccc1Nc1ncc2c(n1)-n1ccc(C(=O)Nc3c(C)cccc3C)c1CC2 [Example 112, 2-[4-[4-(Cyclopropanecarbonyl)piperazin-1-yl]-2-methoxy-anilino]-N-(2,6-dimethylphenyl)-5,6-dihydropyrimido[4,5-e]indolizine-7-carboxamide]	< 50
CCCCS(=O)(=O)N1CCN(c2ccc(Nc3ncc4c(n3)-n3ccc(C(=O)Nc5c(C)cccc5C)c3CC4)c(OC)c2)CC1 [Example 113, 2-[4-(4-Butylsulfonylpiperazin-1-yl)-2-methoxy-anilino]-N-(2,6-dimethylphenyl)-5,6-dihydropyrimido[4,5-e]indolizine-7-carboxamide]	< 50
CCNC(=O)N1CCN(c2ccc(Nc3ncc4c(n3)-n3ccc(C(=O)Nc5c(C)cccc5C)c3CC4)c(OC)c2)CC1 [Example 114, N-(2,6-dimethylphenyl)-2-[4-[4-(ethylcarbamoyl)piperazin-1-yl]-2-methoxy-anilino]-5,6-dihydropyrimido[4,5-e]indolizine-7-carboxamide]	< 50
CCc1cccc(CC)c1NC(=O)c1ccn2c1CCc1cnc(Nc3ccc(N4CCNC(C)C4)cc3OC)nc1-2 (centres unmarked) [Example 116, N-(2,6-diethylphenyl)-2-[2-methoxy-4-(3-methylpiperazin-1-yl)anilino]-5,6-dihydropyrimido[4,5-e]indolizine-7-carboxamide]	< 50
COc1cc(C(=O)N[C@@H]2CCNC[C@@H]2OC)ccc1Nc1ncc2c(n1)-n1ccc(C(=O)Nc3c(C)cccc3C)c1CC2 [Example 117, N-(2,6-dimethylphenyl)-2-[2-methoxy-4-[[(3S,4R)-3-methoxy-4-piperidyl]carbamoyl]anilino]-5,6-dihydropyrimido[4,5-e]indolizine-7-carboxamide]	< 50

Now from value to compound:

IC50 [nM]	SMILES
< 50	Cc1cc(N2CCNCC2)ccc1Nc1ncc2c(n1)-n1ccc(C(=O)Nc3c(C)cccc3Cl)c1CC2 [Example 78, N-(2-chloro-6-methyl-phenyl)-2-(2-methyl-4-piperazin-1-yl-anilino)-5,6-dihydropyrimido[4,5-e]indolizine-7-carboxamide]
< 50	Cc1cc(N2CCNCC2)ccc1Nc1ncc2c(n1)-n1ccc(C(=O)Nc3c(Cl)cccc3Cl)c1CC2 [Example 79, N-(2,6-dichlorophenyl)-2-(2-methyl-4-piperazin-1-yl-anilino)-5,6-dihydropyrimido[4,5-e]indolizine-7-carboxamide]
< 50	CCc1cccc(CC)c1NC(=O)c1ccn2c1CCc1cnc(Nc3ccc(N4CCNCC4)cc3C)nc1-2 [Example 80, N-(2,6-diethylphenyl)-2-(2-methyl-4-piperazin-1-yl-anilino)-5,6-dihydropyrimido[4,5-e]indolizine-7-carboxamide]
< 50	Cc1cc(N2CCNCC2)ccc1Nc1ncc2c(n1)-n1ccc(C(=O)Nc3c(C)cccc3Br)c1CC2 [Example 81, N-(2-bromo-6-methyl-phenyl)-2-(2-methyl-4-piperazin-1-yl-anilino)-5,6-dihydropyrimido[4,5-e]indolizine-7-carboxamide]
< 50	CCc1cccc(C)c1NC(=O)c1ccn2c1CCc1cnc(Nc3ccc(N4CCNCC4)cc3C)nc1-2 [Example 82, N-(2-ethyl-6-methyl-phenyl)-2-(2-methyl-4-piperazin-1-yl-anilino)-5,6-dihydropyrimido[4,5-e]indolizine-7-carboxamide]
< 50	CCc1cccc(CC)c1NC(=O)c1ccn2c1CCc1cnc(Nc3ccc(N4CCOCC4)cc3C)nc1-2 [Example 83, N-(2,6-diethylphenyl)-2-(2-methyl-4-morpholino-anilino)-5,6-dihydropyrimido[4,5-e]indolizine-7-carboxamide]
< 50	COc1cc(OC2CCN(C)C2)ccc1Nc1ncc2c(n1)-n1ccc(C(=O)Nc3c(C)cccc3C)c1CC2 (centres unmarked) [Example 84, N-(2,6-dimethylphenyl)-2-[2-methoxy-4-(1-methylpyrrolidin-3-yl)oxy-anilino]-5,6-dihydropyrimido[4,5-e]indolizine-7-carboxamide]
< 50	Cc1cccc(Cl)c1NC(=O)c1ccn2c1CCc1cnc(Nc3ccc(N4CCN(C)CC4)cc3OC(F)F)nc1-2 [Example 86, N-(2-chloro-6-methyl-phenyl)-2-[2-(difluoromethoxy)-4-(4-methylpiperazin-1-yl)anilino]-5,6-dihydropyrimido[4,5-e]indolizine-7-carboxamide]
< 50	CCc1nn(CCOC)c(CC)c1NC(=O)c1ccn2c1CCc1cnc(Nc3ccc(OC4CNC4)cc3OC)nc1-2 [Example 93, 2-[4-(Azetidin-3-yloxy)-2-methoxy-anilino]-N-[3,5-diethyl-1-(2-methoxyethyl)pyrazol-4-yl]-5,6-dihydropyrimido[4,5-e]indolizine-7-carboxamide]
< 50	COCCn1nc(C)c(NC(=O)c2ccn3c2CCc2cnc(Nc4ccc(-c5c(C)nn(C)c5C)cc4OC)nc2-3)c1C [Example 94, N-[1-(2-methoxyethyl)-3,5-dimethyl-pyrazol-4-yl]-2-[2-methoxy-4-(1,3,5-trimethylpyrazol-4-yl)anilino]-5,6-dihydropyrimido[4,5-e]indolizine-7-carboxamide]
< 50	COCCn1nc(C)c(NC(=O)c2ccn3c2ccc2cnc(Nc4ccc(N5CCNCC5)cc4OC)nc23)c1C [Example 96, N-[1-(2-methoxyethyl)-3,5-dimethyl-pyrazol-4-yl]-2-(2-methoxy-4-piperazin-1-yl-anilino)pyrimido[4,5-e]indolizine-7-carboxamide]
< 50	CCc1n[nH]c(CC)c1NC(=O)c1ccn2c1ccc1cnc(Nc3ccc(N4CCNCC4)cc3OC)nc12 [Example 97, N-(3,5-diethyl-1H-pyrazol-4-yl)-2-(2-methoxy-4-piperazin-1-yl-anilino)pyrimido[4,5-e]indolizine-7-carboxamide]
< 50	[2H]C([2H])([2H])Oc1cc(N2CCN(C)CC2)ccc1Nc1ncc2c(n1)-n1ccc(C(=O)Nc3c(CC)nn(CCOC)c3CC)c1CC2 [Example 100, N-[3,5-diethyl-1-(2-methoxyethyl)pyrazol-4-yl]-2-[4-(4-methylpiperazin-1-yl)-2-(trideuteriomethoxy)anilino]-5,6-dihydropyrimido[4,5-e]indolizine-7-carboxamide]
< 50	CCc1cccc(CC)c1NC(=O)c1ccn2c1CCc1cnc(Nc3cnc(N4CCN(C)CC4)nc3OC)nc1-2 [Example 107, N-(2,6-diethylphenyl)-2-[[4-methoxy-2-(4-methylpiperazin-1-yl)pyrimidin-5-yl]amino]-5,6-dihydropyrimido[4,5-e]indolizine-7-carboxamide]
